{"source": "patent US20250206789A1", "about": "“ZINC FINGER DEGRON SEQUENCES” (STICHTING HET NEDERLANDS KANKER INSTITUUT-ANTONI VAN …, priority 2022, published 2025)", "key": {"[1]": {"test_system": "multiple myeloma patients", "conditions": "high-dose (25 mg per day) cohort; cited from earlier work"}, "[2]": {"test_system": "Primary human T cells", "assay": "Cytokine production and degranulation of CDK4 TCR T cells with Zap70-Siglec11-degron CRASH-IT switch co-cultured with NKIRTIL006 melanoma cells, lenalidomide", "format": "cell-based", "conditions": "for cytokine production at very low lenalidomide concentration: 5 nM lenalidomide, as compared to double hybrid degron containing CRASH-IT switch", "description": "FIG. 5: SynFingers fusion proteins enable sensitive control of immune cell functions. A subset of SynFingers identified in the SynFinger library screen were individually validated. (A-H) Primary human T cells were modified with the HLA class I restricted CDK4 TCR plus a Zap70-Siglec11-degron CRASH-IT switch, in which the degron sequence contains the parental zinc finger degron (double hybrid degron depicted in FIGS. 1 and 3), or the parental zinc finger degron with the following mutations: G14N/K21A, G14M/N15R, L17I/K21L, E4R/Q12L, Q12R/K13T, or Q12R/K13V. As a control, primary human T cells modified with the HLA class I restricted CDK4 TCR plus vector control were used. Cells were pretreated with 5 nM lenalidomide or left untreated. Data depict intracellular IFNγ, IL2, TNFα, and cell surface LAMP1 expression of CDK4 TCR+, EGFP intermediate, CD8+ T cells upon co-culture with NKIRTIL006 melanoma cells in the continued absence (E-H) or continued presence of 5 nM lenalidomide (A-D). Dashed horizontal lines indicate cytokine production and degranulation levels of cells modified with a CRASH-IT switch containing the parental zinc finger degron. Error bars represent standard deviation (n=2). SynFinger and vector control groups were compared to the parental zinc finger group using a one-sided t test: *=p<0.05, **=p<0.01, ***=p<0.001, ****=p<0.0001, n.s.=not significant. Data are representative of two independent experiments.\nFIG. 6: SynFinger containing CRASH-IT switches enable restoration of cytokine production and degranulation at lower IMID concentrations as compared to zinc finger degrons not according to the invention. (A-D) Primary human T cells modified with the HLA class I restricted CDK4 TCR plus a Zap70-Siglec11-degron CRASH-IT switch, in which the degron sequence contains prior art zinc finger degrons (single hybrid, dual zinc finger degron depicted in FIG. 1), the parental zinc finger degron (double hybrid degron depicted in FIGS. 1 and 3), or the parental zinc finger degron with the following mutations: G14N/K21A, L17I/K21L, or Q12R/K13V, were pretreated with the indicated concentrations of lenalidomide or left untreated. Data depict intracellular IFNγ, IL2, TNFα, and cell surface LAMP1 expression of CDK4 TCR+, EGFP intermediate, CD8+ T cells upon co-culture with NKIRTIL006 melanoma cells in the continued presence or absence of the indicated concentration of lenalidomide (A-D). Error bars represent standard deviation (n=3). Data are representative of two independent experiments. (E) Table depicts EC50Lenalidomide (nM) values of cells in (A-D), and EC50 fold change between the prior art zinc finger degron and a SynFinger containing the Q12R/K13V substitutions.\nFIG. 7: Combination of dual substitution sets can further increase lenalidomide sensitivity of SynFinger degron. (A-D) Primary human T cells modified with the HLA class I restricted CDK4 TCR plus a Zap70-Siglec11-degron CRASH-IT switch, in which the degron sequence contains the parental zinc finger degron (double hybrid degron depicted in FIGS. 1 and 3), or the parental zinc finger degron with the following mutations: G14N/K21A, Q12R/K13V, or Q12R/K13V/G14N/K21A, were pretreated with the indicated concentrations of lenalidomide or left untreated. Data depict intracellular IFNγ, IL2, TNFα, and cell surface LAMP1 expression of CDK4 TCR+, EGFP intermediate, CD8+ T cells upon co-culture with NKIRTIL006 melanoma cells in the continued presence or absence of the indicated concentration of lenalidomide (A-D). Error bars represent standard deviation (n=3). Data are representative of two independent experiments.\nTo test whether the SynFingers that show an improved drug sensitivity in this Jurkat SynFinger library screen also led to an improved sensitivity to low IMID concentrations when expressed in primary human T cells, human peripheral blood T cells were modified to express the CDK4 TCR and indicated SynFinger containing CRASH-IT switch variants (FIG. 5). […]"}, "[3]": {"test_system": "Primary human T cells", "assay": "Cytokine production and degranulation of CDK4 TCR T cells with Zap70-PD1-degron CRASH-IT switch co-cultured with NKIRTIL006 melanoma cells, thalidomide titration", "format": "cell-based", "conditions": "as compared to single hybrid, dual zinc finger prior art degron; IFNγ, IL2, TNFα, LAMP-1", "description": "FIG. 1: Sensitivity of zinc finger degrons to IMiD can be improved by alteration of the second zinc finger sequence. (A) Schematic representation of a panel of zinc finger degrons containing the ZFP91 ZF4 beta hairpin and IKZF1 ZF2 alpha helix as a hybrid first zinc finger. […] (B-E) Primary human T cells modified with the HLA class I restricted CDK4 TCR plus a Zap70-PD1-degron CRASH-IT switch, in which the degron sequence is selected from (A), were pretreated with indicated concentrations of thalidomide. Data depict intracellular IFNγ, IL2, TNFα, and cell surface LAMP1 expression of CDK4 TCR+, EGFP high, CD8+ T cells upon co-culture with NKIRTIL006 melanoma cells in the continued presence of indicated concentrations of thalidomide. Error bars represent standard deviation (n=2). Data are representative of two independent experiments.\nTo our knowledge, the possibility of using a hybrid zinc finger as the second zinc finger as a means to improve the overall sensitivity of the dual zinc finger degron system was not tested before. To investigate whether the second zinc finger (IKZF1 ZF3) of the single hybrid, dual zinc finger prior art degron can be replaced with other zinc finger sequences while preserving or improving sensitivity towards IMiDs, we created a panel of CRASH-IT switches containing the zinc finger degrons shown in FIG. 1. […]"}, "[4]": {"target": "IMID/CRBN E3 ligase complex (Homo sapiens, UniProt Q96SW2)", "sequence (Q96SW2 whole entry, one chain of several)": "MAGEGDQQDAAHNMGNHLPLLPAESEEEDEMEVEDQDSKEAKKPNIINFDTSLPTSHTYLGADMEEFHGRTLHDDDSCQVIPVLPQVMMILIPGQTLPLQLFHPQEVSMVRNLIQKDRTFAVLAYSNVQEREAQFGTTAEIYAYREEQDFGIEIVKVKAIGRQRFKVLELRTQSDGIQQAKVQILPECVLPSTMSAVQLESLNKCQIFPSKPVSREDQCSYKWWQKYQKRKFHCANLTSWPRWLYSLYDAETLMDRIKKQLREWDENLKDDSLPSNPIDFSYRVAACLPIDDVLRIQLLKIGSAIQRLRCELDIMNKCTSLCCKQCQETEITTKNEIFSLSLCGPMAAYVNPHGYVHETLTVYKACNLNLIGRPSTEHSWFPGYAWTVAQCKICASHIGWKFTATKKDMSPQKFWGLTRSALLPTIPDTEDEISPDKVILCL", "conditions": "as compared to non-hybrid ZFP91 ZF4 and IKZF1 ZF2 zinc finger degrons; cited from earlier work"}, "[5]": {"test_system": "Jurkat cells", "assay": "SynFinger library screen: CD69 expression of CRASH-IT (Zap70-PD1-degron) transduced Jurkat cells with or without lenalidomide, enrichment index from NGS reads", "format": "cell-based", "design": "key to EI / EI index (enrichment index): enrichment index; low EI = SynFinger with desired properties", "description": "[…] Jurkat cells were transduced with the SynFinger library (SynFinger containing CRASH-IT switches) at a 12.8% transduction efficiency and sorted for high EGFP expression to enrich transduced cells. For quality control of the SynFinger transduced Jurkat cells, SynFinger sequences were amplified and analyzed by NGS. 10 randomly selected SynFinger encoding DNA sequences or DNA sequences encoding the same SynFinger amino acid sequences but contain 2 nucleotide mismatches due to alternative codon usage were used to assess ability to distinguish true SynFinger sequences from noise in the NGS data. 10/10 SynFinger encoding full-nucleotide sequence match sequences were observed within NGS data whereas the 2 nucleotide mismatch containing sequences were not detected.\nJurkat cells expressing the SynFinger library were treated with 50 nM lenalidomide (a suboptimal dose that activates only ˜50% of cells expressing a CRASH-IT switch containing the parental double hybrid degron in Jurkat cells, as compared to a maximally effective 1000 nM lenalidomide dose) or were mock treated for 24 hours, and subsequently activated with anti-CD3/anti-CD28 antibodies in the presence or absence of 50 nM lenalidomide for 5 hours. Afterwards, cells were stained with IR dye (1:400) and anti-CD69-PE (1:200). Cells were sorted for live (IR dye negative), EGFP high end CD69 high (top 5%) or CD69 low (bottom 5%) expression using Aria Fusion cytometers.\nSubsequently, cells were washed with PBS, and cell pellets were frozen at −20° C. until DNA extraction. Genomic DNA was isolated using the DNeasy Blood & Tissue Kit (Qiagen) according to the manufacturer's instructions, using 5×10^6 cells per column. DNA was eluted in 22 μl RNAse free water. Deep sequencing adapters and indexes were added to SynFinger encoding DNA sequences using PCR amplification. Briefly, 3 μg genomic DNA (20 μl), indexed forward and reverse primers (10 μM, 2.5 μl each) and 25 μl NEBNext® High-Fidelity 2×PCR Master Mix were added to the PCR reaction. An optimized PCR reaction (98° C. for 30 s, (98° C. for 10 s, 56° C. for 10 s, 72° C. for 5 s)×25 cycles, 72° C. for 3 min was performed using Eppendorf PCR cyclers.\nIndexed PCR products were run on agarose gel, relative DNA concentrations were estimated by measuring band intensity, and 12 indexed PCR reaction products were mixed per MiSeq chip. To increase sequence diversity, samples were mixed with 25% PhiX DNA. In total, 2 MiSeq chips were used (100 bp, single read). To distinguish genuine SynFinger sequences from sequencing errors, results were filtered using a reference list of actual sequences used in SynFinger library design (100% codon match). Sequences with a very low number of reads (sum of all samples below 500 reads) were excluded from analysis.\nTo identify SynFingers that improve sensitivity of CRASH-IT switches towards lenalidomide while preserving or improving stringency of switch mediated control of T cell activation in the absence of lenalidomide, an enrichment index (EI) value was calculated for each sequence as described below, and SynFingers were ranked according to their EI, with a low EI indicating a SynFinger with desired properties.\nCD69-HI and […] read counts from top 100 SynFingers were compared with read counts from the parental double hybrid degron using a two-sided Fisher's exact test to determine enrichment of CD69-HI cells in the presence of lenalidomide and enrichment of CD69-LO cells in the absence of lenalidomide.\nTo further improve the sensitivity of double hybrid degron towards IMiDs, we performed a high throughput screen using a library of ˜50,200 CRASH-IT variants that encode either single or double amino acid substitutions at the indicated positions of the first hybrid zinc finger sequence, thereby changing 18 amino acids of this zinc finger into any amino acid except cysteine (FIG. 3). […]"}}, "data": [{"compound": "Nc1cccc2c1CN(C1CCC(=O)NC1=O)C2=O", "note": "(stereo not shown) [lenalidomide]", "values": [{"measurement": "toxicity in maintenance therapy", "setting": "[1]", "value": "dose reductions due to toxicity, in particular neutropenia, were frequent"}]}, {"compound": "LQCEICGFTCRQKGNLIRHILLH [SEQ ID NO: 14]", "values": [{"measurement": "cytokine production at very low lenalidomide concentration", "setting": "[2]", "value": "improved cytokine production"}]}, {"compound": "LQCEICGFTCRQKGNLLRHIKLH [single hybrid, single zinc finger degron, ZFP91 ZF4 beta hairpin-IKZF1 ZF2 alpha helix, no second zinc finger, reference compound]", "values": [{"measurement": "sensitivity of the CRASH-IT switch towards thalidomide", "setting": "[3]", "value": "reduced thalidomide sensitivity"}, {"measurement": "sensitivity towards IMiD induced degradation", "setting": "[4]", "value": "increase sensitivity"}]}, {"compound": "LQCEICGFTCRQKGNLLRHIKLHSGEKPFKCHLCNYACRRKDSVVAHKAKSH [double hybrid degron, ZFP91 ZF4 beta hairpin-IKZF1 ZF2 alpha helix plus IKZF1 ZF3 beta hairpin-ZFP91 ZF5 alpha helix]", "values": [{"measurement": "sensitivity of the CRASH-IT switch towards thalidomide", "setting": "[3]", "value": "improved the sensitivity"}, {"measurement": "cells activated at 50 nM lenalidomide as compared to maximally effective 1000 nM lenalidomide dose", "setting": "[5]; Jurkat cells expressing CRASH-IT switch, 50 nM lenalidomide", "value": "~50", "unit": "%"}]}, {"compound": "LQCEICGFTCRQKMRLLRHIKLH [SEQ ID NO: 4]", "values": [{"measurement": "cytokine production at very low lenalidomide concentration", "setting": "[2]", "value": "improved cytokine production"}]}, {"compound": "LQCEICGFTCRQKNNLLRHIALH [SEQ ID NO: 6]", "values": [{"measurement": "cytokine production at very low lenalidomide concentration", "setting": "[2]", "value": "improved cytokine production"}]}, {"compound": "LQCEICGFTCRRTGNLLRHIKLH [SEQ ID NO: 2]", "values": [{"measurement": "cytokine production at very low lenalidomide concentration", "setting": "[2]", "value": "improved cytokine production"}]}, {"compound": "LQCEICGFTCRRVGNLLRHIKLH [SEQ ID NO: 9]", "values": [{"measurement": "cytokine production at very low lenalidomide concentration", "setting": "[2]", "value": "improved cytokine production"}, {"measurement": "EI", "setting": "[5]; Jurkat SynFinger screen", "value": 0.006877}]}, {"compound": "LQCEICGFTCRRVNNLLRHIALH [Q12R/K13V/G14N/K21A, SynFinger degron with quadruple substitutions]", "values": [{"measurement": "sensitivity of the SynFinger towards lenalidomide", "setting": "[2]; as compared to SynFinger degrons with Q12R/K13V or G14N/K21A", "value": "improved the sensitivity"}]}, {"compound": "LQCRICGFTCRLKGNLLRHIKLH [SEQ ID NO: 1]", "values": [{"measurement": "cytokine production at very low lenalidomide concentration", "setting": "[2]", "value": "improved cytokine production"}]}]}
